The test system of the series is Tetrahymena pyriformis. Put plainly: 48 h IGC50 (-log10 mol/L); higher = more toxic.
Turning to `CCCC/C=C/CO`, the “48 h IGC50 (-log10 mol/L)” value turned out to be 3.04.
The value for `O=[N+]([O-])c1ccc(Nc2ccccc2)cc1` was 4.89; that for `c1ccc(Cc2ccccn2)cc1` was 3.38; that for `CC(=O)O[C@@H]1C[C@@H]2CC[C@@]1(C)C2(C)C` was 3.68.
The value for `N#CCCCCC#N` was 1.46.
On to `O=[N+]([O-])c1ccncc1`, for which the “48 h IGC50 (-log10 mol/L)” value was 3.41.
The value for `CCCCCC(=O)CC(C)=O` was 3.51; that for `O=[N+]([O-])c1ccc(Br)cc1` was 3.38.
The value for `CC(C)(O)C#CC(C)(C)O` was 1.42; that for `OCCCCc1ccccc1` was 3.12; that for `CCCCC/C=C/C(=O)O` was 3.21.
The value for `OCc1c(F)c(F)c(F)c(F)c1F` was 2.8; that for `O=C(c1ccccc1)C(F)(F)F` was 2.99; that for `CCSc1ccccc1` was 3.3.
With `C=C(C)CCC(C)=O`, the “48 h IGC50 (-log10 mol/L)” value is 2.12.
The value for `C=CCC(=O)O` was 2.36.
As for `O=C(O)c1c(Cl)cccc1Cl`, the “48 h IGC50 (-log10 mol/L)” value amounted to 2.33.
The value for `O=[N+]([O-])c1cccc(Br)c1` was 4.03.
Regarding `Cc1ccc(Cl)c(C=O)c1F`, the “48 h IGC50 (-log10 mol/L)” value was found to be 3.74.
In the case of `Nc1cc(Cl)c(Cl)cc1[N+](=O)[O-]` it was 4.66; in that of `N#CCCCCCCCl`, 3.29.
For the compound `Cc1ccc2ccccc2c1C=O`, the “48 h IGC50 (-log10 mol/L)” value turned out to be 4.23.
In the case of `C=CCOC(C)=O` it was 3.48.
In the case of `CCOC(=O)CBr` it was 5.68; in that of `Oc1cccc(O)c1O`, 3.85; in that of `CCCCCCCC#N`, 3.28.
The value for `CCOC(=O)c1ccc(Cl)cc1` was 3.75; that for `OCCc1cccc2ccccc12` was 3.27.
Turning to `CCC(=O)OC`, the “48 h IGC50 (-log10 mol/L)” value turned out to be 1.39.
The value for `Cc1nc2ccccc2nc1C` was 3.25.
The value for `CCCCC(O)CC` (centres undefined) was 2.51; that for `Cc1ccc(O)c(O)c1` was 3.37; that for `CCCC/C=C/C(C)=O` was 3.74.
In the case of `O=Cc1ccccc1Br` it was 3.48.
`CCC=C(C)C=O`: the “48 h IGC50 (-log10 mol/L)” value was determined as 2.98.
In the case of `C=CCOC(=O)CCC` it was 2.37.
In the case of `N#C/C=C/c1ccco1` it was 2.69.
In the case of `C=C(C=O)CC` it was 3.91; in that of `C=CSc1ccccc1`, 3.42.
For the compound `CCOC(=O)C(Br)(Br)C(=O)OCC`, the “48 h IGC50 (-log10 mol/L)” value turned out to be 5.14.
The value for `N#CCC(=O)OC1CCCCC1` was 2.91.
In the case of `O=C(Oc1cccc(O)c1)c1ccccc1` it was 4.11; in that of `C=CCBr`, 3.57.
The value for `CN(CCO)CCO` was 1.17; that for `CCCCCOC(=O)c1ccccc1` was 4.37; that for `N#Cc1cccc(C=O)c1` was 2.98.
For the compound `CNCC(O)CO` (centres undefined), the “48 h IGC50 (-log10 mol/L)” value was found to be 1.47.
The value for `Ic1ccccc1` was 3.36.
In the case of `CC(C)C(=O)O` it was 2.67.
In the case of `CC=CCO` it was 1.53; in that of `Clc1ccccn1`, 2.16.
For the compound `N#Cc1ccccc1[N+](=O)[O-]`, the “48 h IGC50 (-log10 mol/L)” value is 4.08.
In the case of `CCCCCCCCCC=CCO` it was 5.09; in that of `CC(C)c1ccccc1N`, 3.12.
In the case of `CCOC(=O)C#Cc1ccccc1` it was 4.67.
The value for `CC(=O)c1ccco1` was 1.96; that for `NNC(=O)Cc1ccccc1` was 2.52; that for `COC(=O)C=C(C)C` was 1.94.
As for `CC(=O)C(Cl)C(C)=O`, the “48 h IGC50 (-log10 mol/L)” value was found to be 4.44.
In the case of `c1ccc2c(c1)ccc1cccnc12` it was 4.31.
In the case of `CC(O)(Cc1ccccc1)c1ccccc1` (centres undefined) it was 3.8; in that of `N#Cc1ccc(Cl)c([N+](=O)[O-])c1`, 4.71; in that of `CCc1ccc(CO)cc1`, 3.07.
In the case of `COc1cccc(C=O)c1` it was 3.23; in that of `CC(C)(Br)[N+](=O)[O-]`, 4.85.
Take `CCCCCC(=O)OC`: the “48 h IGC50 (-log10 mol/L)” value is 2.44.
In the case of `CC(=O)c1cccs1` it was 2.41; in that of `CC(Br)c1ccccc1` (centres undefined), 2.33; in that of `O=C(c1ccccc1)c1ccccc1O`, 4.23.
In the case of `CCCC(=O)CCC` it was 2.33; in that of `C=CC(=O)OCc1ccccc1`, 4.35; in that of `CC(C)COC(=O)C(C)C`, 2.41.
The value for `C#CCCCCO` was 1.71.
For the compound `O/N=C\c1ccccc1`, the “48 h IGC50 (-log10 mol/L)” value was determined as 2.89.
In the case of `CC(=O)OC1=CCCCC1` it was 2.6.
In the case of `Nc1c(Cl)c(Cl)cc(Cl)c1Cl` it was 4.76; in that of `CCCCOC(=O)CC`, 3.17.
In the case of `CCOC(=O)c1ccc(C(C)(C)C)cc1` it was 4.42; in that of `Cc1ccsc1`, 2.3.
For `CCOC(=O)c1ccc(I)cc1`, the “48 h IGC50 (-log10 mol/L)” value was found to be 4.53.
In the case of `O=C(NO)c1ccccc1O`, the “48 h IGC50 (-log10 mol/L)” value worked out at 3.38.
In the case of `CC(O)CCC(C)O` (centres undefined) it was 1.04; in that of `OCCCCCCBr`, 3.01; in that of `C=C(C)CCO`, 1.82.
In the case of `NC(=O)Oc1ccccc1` it was 2.61; in that of `O=C(O)CCCCCCCBr`, 4.32.
The value for `COC(=O)c1ccc(C(C)(C)C)cc1` was 3.92.
On to `c1cnccn1`, for which the “48 h IGC50 (-log10 mol/L)” value worked out at 1.18.
The value for `CCCCCCCCCOC(=O)c1ccc(O)cc1` was 5.63; that for `CC(=O)c1ccn(C)c1` was 2.
The value for `C=C(C)C#N` was 1.35; that for `CCCOC(=O)CCl` was 4.18.
The value for `O=[N+]([O-])c1ccc(F)cc1O` was 4.12.
With `CCCCCC#CC(=O)OC`, the “48 h IGC50 (-log10 mol/L)” value was found to be 4.04.
The value for `CCCC(=O)O` was 2.43.
The value for `CCCCOc1ccc(C=O)cc1` was 3.72.
In the case of `CC(=O)N(C)C` it was 1.05; in that of `NCCCCc1ccccc1`, 3.62; in that of `Cc1ccc2nc(C)ccc2c1`, 3.68.
Turning to `CC(C)(Br)C(=O)O`, the “48 h IGC50 (-log10 mol/L)” value turned out to be 2.42.
The value for `Oc1ccccc1Cc1ccccc1` was 4.31; that for `CC/C=C\CCCCCC=O` was 3.95.
The value for `O=Cc1cc(Br)c(O)c(Br)c1` was 3.89.
In the case of `CCCCCCCC=CCO` it was 4.13; in that of `OCc1ccccc1Br`, 3.1; in that of `CCC(Cl)C(=O)O` (centres undefined), 2.65.
As for `OCc1cccc2ccccc12`, the “48 h IGC50 (-log10 mol/L)” value amounted to 3.13.
In the case of `COc1cccc2ccccc12` it was 3.8; in that of `OCc1ccc(F)cc1`, 2.38.
In the case of `NNC=O` it was 2.13; in that of `O=C(c1ccccc1)c1ccc(Br)cc1`, 4.26.
In the case of `Cc1ccc(N)cc1C` it was 2.84.
With `O=[N+]([O-])c1ccc(O)c(Cl)c1`, the “48 h IGC50 (-log10 mol/L)” value amounted to 4.18.
As for `C=COC(=O)C=C`, the “48 h IGC50 (-log10 mol/L)” value stood at 4.42.
In the case of `CCCCCCCC(=O)c1ccccc1` it was 4.89; in that of `O=C(O)CCCCl`, 2.32.
With `CC1CCOC1=O` (centres undefined), the “48 h IGC50 (-log10 mol/L)” value was found to be 1.81.
In the case of `O=[N+]([O-])c1c(Cl)cc(Cl)cc1Cl` it was 4.43; in that of `CC(=O)NN`, 1.62.
In the case of `Oc1cc(Cl)ccc1Cl` it was 4.13.
Regarding `CCCOC(=O)CC`, the “48 h IGC50 (-log10 mol/L)” value came to 2.19.
In the case of `CC(C)(O)Cc1ccccc1` it was 2.59; in that of `NCCc1ccc(Cl)cc1`, 3.14; in that of `Nc1cc(Cl)c([N+](=O)[O-])cc1O`, 4.17.
In the case of `C=CC(=O)OCCCCCCC` it was 4.09; in that of `N#Cc1cccc(N)c1`, 2.53.
As to `Cc1cc(O)c(C(C)C)cc1Cl`, the “48 h IGC50 (-log10 mol/L)” value is 4.85.
As for `OCCCCCCc1ccccc1`, the “48 h IGC50 (-log10 mol/L)” value is 3.87.
The value for `Oc1ccc(O)c(O)c1` was 3.44.
The value for `CC(C)(C)c1ccc(CO)cc1` was 3.48; that for `C=CC(=O)OCCC` was 3.53; that for `C=CCc1ccccc1` was 3.19.
The value for `O=C(CCl)CCl` was 5.05; that for `Cc1ccc(Br)cc1` was 3.47.
As for `CCCCCCCCCCC#CCCO`, the “48 h IGC50 (-log10 mol/L)” value stood at 5.38.
The value for `CCCCCN` was 2.52.
The value for `O=[N+]([O-])c1ccc(CO)cc1` was 3.12.
Turning to `C#CCOC(=O)CC`, the “48 h IGC50 (-log10 mol/L)” value was determined as 2.35.
The value for `CCOC(=O)C(C)C` was 1.73.
